Source: patent publication US9138434B2, “Octahydrothienoquinoline derivative, pharmaceutical composition comprising derivative, and use of these” (KISSEI PHARMACEUTICAL CO., LTD., priority 2011, dated 2015)
Read-outs that look alike come from different tables or passages of the source.

Key:
[1] = molecular target: T1, human dopamine D2 receptor (Homo sapiens, UniProt P14416); experiment: Stimulating activities on human dopamine D2 receptor, [35S]GTPγS binding to hD2R#7 cell membrane homogenates; type: biochemical
T1 construct: accorded to it of human dopamine D2 receptor (NM1-000795) registered on NCBI completely; expressed in transfected cells; membrane homogenates
Method: Identification Test of Stimulating Activities on Human Dopamine D2 Receptor
4) Preparation of Membrane Homogenates from hD2R#7 Cells
(2) Preparation of Membrane Homogenates from hD2R#7 Cells
The cells, which were grown to confluence in 150 mm dishes (IWAKI), were harvested with isotonic buffer (50 mM Tris (Sigma), 2 mM ethylenediamine-tetraacetic acid (Invitrogen), and 125 mM sodium chloride (Wako Pure Chemicals), pH 7.4) and centrifuged at 1880×g and 4° C. for 10 minutes, and the cell pellets were then suspended in isotonic buffer. After being subjected to one cycle of freezing and thawing, the cells were centrifuged at 1880×g and 4° C. for 10 minutes, and the cell pellets were suspended in isotonic buffer. The cells were centrifuged at 1880×g and 4° C. for 10 minutes, and the cell pellets were suspended in isotonic buffer and homogenate buffer (10 mM sodium bicarbonate (Nacalai) and 5 mM ethylenediamine-tetraacetic acid, pH 7.5). The volume ratio of isotonic-to-homogenate buffer was 2. The cells were sonicated and centrifuged at 1880×g and 4° C. for 10 minutes, and the supernatants were ultracentrifuged at 80000×g and 4° C. for 30 minutes. The final cell pellets were suspended in homogenate buffer containing protease inhibitor cocktail (Nacalai) and stored at −80° C. until use. The protein concentration was determined using BCA Protein Assay Kit (Pierce) in accordance with the manufacturer's instructions.
5) Determination of Stimulating Activities of Human Dopamine D2 Receptor
The stimulating activities of human dopamine D2 receptor was determined by measuring the binding potential of [^35S]-guanosine 5′-[gamma-thio]triphosphate ([^35S]GTPγS, PerkinElmer) according to the method described by Newman-Tancredi A. et al. (Naunyn-Schmiedeberg's Arch Pharmacol, 1999, vol. 359, pp. 447-453) with a minor modification. Test compounds and dopamine hydrochloride (Fluka) as positive control were dissolved in dimethyl sulfoxide (CARLBIOCHEM), resulting in 30 mM. The both compounds were diluted with assay buffer (50 mM Tris, 100 mM sodium chloride, 5 mM magnesium chloride (Nacalai), 1 mM ethylenediamine-tetraacetic acid, 1 mM dithiothreitol (Wako Pure Chemicals), 10 μM guanosine diphosphate (Wako Pure Chemicals) and 0.5% bovine serum albumin (Sigma), pH 7.4) to a final concentration of 100 pM (only test compounds), 1 nM, 10 nM, 100 nM, 1 μM, 10 μM and 100 μM (only dopamine hydrochloride). The above membrane homogenates and [^35S]GTPγS were diluted with assay buffer to a final concentration of 0.06 mg/mL and 0.6 nM, respectively. The serial diluted compounds (50 μL), the diluted membrane homogenates (50 μL) and the diluted [^35S]GTPγS (50 μL) were mixed on multi-screen 96-well plate (Millipore) and shaken lightly at room temperature for 60 minutes. The reaction was terminated by vacuum filtration with three times washes of ice-cold wash buffer (50 mM Tris, 100 mM sodium chloride, 5 mM magnesium chloride, and 1 mM ethylenediamine-tetraacetic acid, pH 7.4). After drying the bottoms of the plate at 60° C., MicroScinti-40 (PerkinElmer) (30 μL) was added in the plate. The tops of the plate were sealed by TopSeal-A (PerkinElmer), and the radioactivity was determined in a TopCount NXT (registered mark) (PerkinElmer) after shaking lightly for 5-10 minutes. The data was analyzed by nonlinear regression and sigmoidal dose-response curve fitting using GraphPad PRISM 4.0 (GraphPad Software), and values of EC50 (concentration of the compound producing half the maximal effect of the compound) were calculated. The data was presented as mean value (n=2).

[2] = molecular target: T2, human serotonin 5-HT2B receptor (Homo sapiens, UniProt P41595); experiment: Stimulating activities on human serotonin 5-HT2B receptor, intracellular calcium in forced expression HEK293 cells; type: cell-based
T2 construct: expressed in transfected cells; host or cells: HEK293, transient transfection (Lipofectamine 2000)
Method: Identification Test of Stimulating Activities on Human Serotonin 5-HT2B Receptor
The PCR was performed using forward primer depicted as sequence ID No. 4, reverse primer depicted as sequence ID No. 5 and KOD-Plus-Ver.2 (TOYOBO) as template of human brain hippocampus cDNA (Clontech). The PCR product was inserted into a plasmid (pcDNA3.1/V5-His-Topo (registered mark)). The PCR product-inserted plasmid was transformed in E. coli (One Shot TOP10 Chemically Competent). That E. coli was incubated in LB agar medium contained 50 μg/mL ampicillin for a day. A selected colony was incubated in LB medium contained 50 μg/mL ampicillin and PCR product-inserted plasmid was purified with QIAprep Spin Miniprep Kit (QIAGEN).
Mostly confluent HEK293 cells were washed with PBS, followed by exfoliation with 0.05% trypsin-EDTA and the cells were suspended in D-MEM liquid medium (phenol red-free, low glucose, pyruvic acid were contained) containing fetal bovine serum (final concentration: 10%) and GlutaMax (registered mark)I (final concentration: 2 mM). The suspension was scattered at 5×10^4 cells/100 L/well on poly-D-lysine-coated 96-well microplate (BD BioCoat (registered mark)). The scattered cells were cultured in 5% CO2 incubator at 37° C. Human serotonin 5-HT2B receptor expression plasmid was transfected in that cells according to the procedure seeing below.
Human serotonin 5-HT2B receptor expression plasmid and Lipofectamine (registered mark) 2000 (Invitrogen) were diluted to 0.008 g/L and 0.016 g/L each other with OPTI-MEM (registered mark)I Reduced-Serum Medium and incubated at room temperature. After incubation, the human serotonin 5-HT2B receptor exoression plasmid-diluted liquid and Lipofectamine (registered mark) 2000-diluted liquid were mixed at an equal volume and incubated at room temperature to form a complex. The complex was dispensed at 50 μL/well on the cells prepared above. The cells were incubated in 5% CO2 incubator at 37° C. for 2 days. After incubation, the cells were used as human serotonin 5-HT2B receptor forced expression cells for measurement of intracellular calcium concentration.
3) Determination of Stimulating Activities of Human Serotonin 5-HT2B Receptor
The stimulating activities of human serotonin 5-HT2B receptor was determined by measuring of intracellular calcium concentration. The 30 mM dimethyl sulfoxide (DMSO) solution contained test compounds or serotonin hydrochloride (Sigma) as positive control, was diluted with assay buffer ((HBSS), 20 mM HEPES, 1.3 mM calcium chloride, 0.5 mM magnesium chloride and 0.4 mM magnesium sulfate were contained, pH7.4) to appropriate concentration.
The forced expression cells were washed with assay buffer, and 100 μL/well of fluorescent calcium indicator (Fluo-4 NW Calcium Assay Kit) was added and incubated in 5% CO2 incubator at 37° C. After incubation, 50 μL/well of each test compound was added, and the concentration of intracellular calcium was measured as fluorescent signal with FlexStation (registered mark) II (Molecular Devices). The data was analyzed by nonlinear regression and sigmoidal dose-response curve fitting using GraphPad PRISM 4.0, and values of EC50 (concentration of the compound producing half the maximal effect of the compound) were calculated. The data was presented as mean value (n=2).

[3] = [35S]GTPγS binding, membrane homogenates of HEK293 cells stably expressing human D2 receptor, mean, n=2, read-out: EC50
[4] = intracellular calcium (Fluo-4), HEK293 cells transiently expressing human 5-HT2B receptor, mean, n=2, read-out: EC50

T2 sequence (P41595 whole entry): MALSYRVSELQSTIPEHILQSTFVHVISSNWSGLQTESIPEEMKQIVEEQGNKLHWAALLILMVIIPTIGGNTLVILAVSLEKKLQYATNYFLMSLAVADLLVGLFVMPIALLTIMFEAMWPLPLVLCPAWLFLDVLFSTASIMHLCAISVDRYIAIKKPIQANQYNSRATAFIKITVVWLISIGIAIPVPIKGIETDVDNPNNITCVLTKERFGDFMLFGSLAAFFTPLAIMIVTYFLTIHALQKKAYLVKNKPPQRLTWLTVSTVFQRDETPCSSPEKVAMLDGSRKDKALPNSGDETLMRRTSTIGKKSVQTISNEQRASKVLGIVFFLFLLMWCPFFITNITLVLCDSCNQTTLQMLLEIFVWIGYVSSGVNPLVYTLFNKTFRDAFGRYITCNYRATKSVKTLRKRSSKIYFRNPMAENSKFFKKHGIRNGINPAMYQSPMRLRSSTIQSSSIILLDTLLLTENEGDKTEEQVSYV
T1 sequence (P14416 whole entry): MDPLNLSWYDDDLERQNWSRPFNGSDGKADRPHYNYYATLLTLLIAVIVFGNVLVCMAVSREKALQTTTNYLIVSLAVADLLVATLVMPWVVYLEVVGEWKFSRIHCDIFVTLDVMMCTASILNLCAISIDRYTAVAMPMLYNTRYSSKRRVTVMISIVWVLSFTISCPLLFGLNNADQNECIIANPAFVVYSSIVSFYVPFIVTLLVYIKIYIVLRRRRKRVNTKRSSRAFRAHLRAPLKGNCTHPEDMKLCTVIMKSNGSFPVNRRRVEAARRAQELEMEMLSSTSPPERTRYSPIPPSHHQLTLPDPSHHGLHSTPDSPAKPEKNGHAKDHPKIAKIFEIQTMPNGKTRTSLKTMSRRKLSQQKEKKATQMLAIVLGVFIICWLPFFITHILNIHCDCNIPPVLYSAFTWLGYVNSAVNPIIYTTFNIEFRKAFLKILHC

Structure (SMILES)	EC50 [1, 3] [nM]	EC50 [2, 4] [nM]	EC50 [1] [nM]	EC50 [2] [nM]
CN(C)CCNC(=O)N(CCc1ccccc1)C(=O)[C@@H]1C[C@@H]2Cc3c(sc(N)c3C#N)C[C@H]2N(C)C1 (relative stereo) [1-30, 1-{[(4aR*,6R*,8aR*)-2-amino-3-cyano-8-methyl-4H,4aH,5H,6H,7H,8H,8aH,9H-thieno[3,2-g]quinolin-6-yl]carbonyl}-3-[2-(dimethylamino)ethyl]-1-(2-phenylethyl)urea]	4	> 10000	–	–
CCCN(C(=O)NCC(C)(C)N(C)C)C(=O)[C@@H]1C[C@@H]2Cc3c(sc(N)c3C#N)C[C@H]2N(C)C1 (relative stereo) [1-82, 1-{[(4aR*,6R*,8aR*)-2-amino-3-cyano-8-methyl-4H,4aH,5H,6H,7H,8H,8aH,9H-thieno[3,2-g]quinolin-6-yl]carbonyl}-3-[2-(dimethylamino)-2-methylpropyl]-1-propylurea]	13	> 10000	–	–
CCN(C(=O)NCC(CC)(CC)N(C)C)C(=O)[C@@H]1C[C@@H]2Cc3c(sc(N)c3C#N)C[C@H]2N(C)C1 (relative stereo) [1-84, 1-{[(4aR*,6R*,8aR*)-2-amino-3-cyano-8-methyl-4H,4aH,5H,6H,7H,8H,8aH,9H-thieno[3,2-g]quinolin-6-yl]carbonyl}-3-[2-(dimethylamino)-2-ethylbutyl]-1-ethylurea]	–	> 10000	–	–
CCCN(C(=O)NCCNC)C(=O)[C@@H]1C[C@@H]2Cc3c(sc(N)c3C#N)C[C@H]2N(C)C1 [1-2]	12	> 10000	–	–
CCNC(=O)N(CCN1CCCC1)C(=O)[C@@H]1C[C@@H]2Cc3c(sc(N)c3C#N)C[C@H]2N(C)C1 [1-6, 1-{[(4aR,6R,8aR)-2-amino-3-cyano-8-methyl-4H,4aH,5H,6H,7H,8H,8aH,9H-thieno[3,2-g]quinolin-6-yl]carbonyl}-3-ethyl-1-[2-(pyrrolidin-1-yl)ethyl]urea]	11	> 10000	–	–
CCN(C(=O)NC)C(=O)[C@@H]1C[C@@H]2Cc3c(sc(N)c3C#N)C[C@H]2N(C)C1 [1-23]	8	> 10000	–	–
CCCN(C(=O)NCC(C)(C)CN(C)C)C(=O)[C@@H]1C[C@@H]2Cc3c(sc(N)c3C#N)C[C@H]2N(C)C1 [1-83]	6	> 10000	–	–
CCCN(C(=O)NC1CN(C)C1)C(=O)[C@@H]1C[C@@H]2Cc3c(sc(N)c3C#N)C[C@H]2N(C)C1 [1-99]	8	> 10000	–	–
CN(C)CC(C)(C)CNC(=O)N(CC1CC1)C(=O)[C@@H]1C[C@@H]2Cc3c(sc(N)c3C#N)C[C@H]2N(C)C1 [1-104, 1-{[(4aR,6R,8aR)-2-amino-3-cyano-8-methyl-4H,4aH,5H,6H,7H,8H,8aH,9H-thieno[3,2-g]quinolin-6-yl]carbonyl}-1-(cyclopropylmethyl)-3-[3-(dimethylamino)-2,2-dimethyl-propyl]urea]	4	> 10000	–	–
CCN(CC)CCNC(=O)N(CC)C(=O)[C@@H]1C[C@@H]2Cc3c(sc(N)c3C#N)C[C@H]2N(C)C1 [1-105, 1-{[(4aR,6R,8aR)-2-amino-3-cyano-8-methyl-4H,4aH,5H,6H,7H,8H,8aH,9H-thieno[3,2-g]quinolin-6-yl]carbonyl}-3-[2-(diethylamino)ethyl]-1-ethylurea]	–	–	5	> 10000
CCN(C(=O)NC(C)(C)CN(C)C)C(=O)[C@@H]1C[C@@H]2Cc3c(sc(N)c3C#N)C[C@H]2N(C)C1 [1-106, 1-{[(4aR,6R,8aR)-2-amino-3-cyano-8-methyl-4H,4aH,5H,6H,7H,8H,8aH,9H-thieno[3,2-g]quinolin-6-yl]carbonyl}-3-[1-(dimethylamino)-2-methylpropan-2-yl]-1-ethylurea]	4	> 10000	–	–
CN(C)CCNC(=O)N(CC1CC1)C(=O)[C@@H]1C[C@@H]2Cc3c(sc(N)c3C#N)C[C@H]2N(C)C1 [1-109, 1-{[(4aR,6R,8aR)-2-amino-3-cyano-8-methyl-4H,4aH,5H,6H,7H,8H,8aH,9H-thieno[3,2-g]quinolin-6-yl]carbonyl}-1-(cyclopropylmethyl)-3-[2-(dimethylamino)ethyl]urea]	3	> 10000	–	–
CCCN1C[C@H](CSC)C[C@@H]2c3cccc4[nH]cc(c34)C[C@H]21 [Pergolide, pergolide, reference compound]	–	287	–	–
